pIC50: −log10 of the molar value. Several values for one entry are separate records, joined by “and”; a condition that tells them apart may be missing. Equal entries are not always repeated.
Tested on: 521955-158-R7-J2-PDC spheroids, viability % test/control
Test: Anticancer human tumor 521955-158-R7-J2-PDC patient-derived pancreatic carcinoma cell line growth inhibition [TAK]
Details: spheroids with HUVEC and MSC; for viability, T/C: stronger effect = lower value
Outline: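 Drug combinations, each paired with TAK-243 or ipatasertib, were tested on multi-cell spheroids of 60% malignant cells, 25% HUVEC and 15% hMSC. Top concentrations were at or near the clinical Cmax (10 microM if undetermined), decreasing by half-log; viability is given as % test/control.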

[1] = curve of first compound, second compound 0.3 µM
[2] = curve of first compound, second compound 0.949 µM
[3] = curve of first compound, second compound 3 µM
[4] = curve of first compound, second compound 9.49 µM
[5] = curve of first compound, second compound 30 µM
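Further: spheroids exposed to compound for 7 days before readout.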
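Wherever viability, T/C is given: 100% = DMSO vehicle control wells.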

Cc1nc(NC(=O)N2CCCC2C(N)=O)sc1-c1ccnc(C(C)(C)C(F)(F)F)c1 (configuration not stated) + CC(C)NCC(C(=O)N1CCN(c2ncnc3c2C(C)CC3O)CC1)c1ccc(Cl)cc1
pIC50 [1]: 5.25 | pIC50 [2]: 5.52 | pIC50 [3]: 5.88 | pIC50 [4]: 6.42 | pIC50 [5]: 6.55 | viability, T/C (second compound 0.3 µM, first compound 0.0316 µM): 106% | viability, T/C (second compound 0.3 µM, first compound 0.1 µM): 106% | viability, T/C (second compound 0.3 µM, first compound 0.316 µM): 83.6% | viability, T/C (second compound 0.3 µM, first compound 1 µM): 62.2% | viability, T/C (second compound 0.3 µM, first compound 3.16 µM): 69.5% | viability, T/C (second compound 0.3 µM, first compound 10 µM): 38.6% | viability, T/C (second compound 0.949 µM, first compound 0.0316 µM): 84% | viability, T/C (second compound 0.949 µM, first compound 0.1 µM): 82.6% | viability, T/C (second compound 0.949 µM, first compound 0.316 µM): 64.6% | viability, T/C (second compound 0.949 µM, first compound 1 µM): 54.7% | viability, T/C (second compound 0.949 µM, first compound 3.16 µM): 60.5% | viability, T/C (second compound 0.949 µM, first compound 10 µM): 33.6% | viability, T/C (second compound 3 µM, first compound 0.0316 µM): 90% | viability, T/C (second compound 3 µM, first compound 0.1 µM): 79% | viability, T/C (second compound 3 µM, first compound 0.316 µM): 54.6% | viability, T/C (second compound 3 µM, first compound 1 µM): 57.3% | viability, T/C (second compound 3 µM, first compound 3.16 µM): 45.4% | viability, T/C (second compound 3 µM, first compound 10 µM): 30.8% | viability, T/C (second compound 9.49 µM, first compound 0.0316 µM): 92.6% | viability, T/C (second compound 9.49 µM, first compound 0.1 µM): 70.1% | viability, T/C (second compound 9.49 µM, first compound 0.316 µM): 48% | viability, T/C (second compound 9.49 µM, first compound 1 µM): 43% | viability, T/C (second compound 9.49 µM, first compound 3.16 µM): 36.7% | viability, T/C (second compound 9.49 µM, first compound 10 µM): 27.8% | viability, T/C (second compound 30 µM, first compound 0.0316 µM): 93.7% | viability, T/C (second compound 30 µM, first compound 0.1 µM): 79.7% | viability, T/C (second compound 30 µM, first compound 0.316 µM): 44.6% | viability, T/C (second compound 30 µM, first compound 1 µM): 43.2% | viability, T/C (second compound 30 µM, first compound 3.16 µM): 39.7% | viability, T/C (second compound 30 µM, first compound 10 µM): 25.6%

COc1c(OCCCN2CCOCC2)ccc2c3n(c(=NC(=O)c4cnc(N)nc4)nc12)CCN3
viability, T/C (compound 0.00316 µM): 87.5% and 86.9% | viability, T/C (compound 0.01 µM): 67.9% and 63.5% | viability, T/C (compound 0.0316 µM): 41.4% and 50.6% | viability, T/C (compound 0.1 µM): 26.5% and 25.3% | viability, T/C (compound 0.316 µM): 14.9% and 13.6% | viability, T/C (compound 1 µM): 10% and 10.6% | pIC50 (curve of compound): 7.65 and 7.60

CC(C)CC(NC(=O)C(Cc1ccccc1)NC(=O)c1cnccn1)B(O)O (configuration not stated) + CC(C)NCC(C(=O)N1CCN(c2ncnc3c2C(C)CC3O)CC1)c1ccc(Cl)cc1
pIC50 [1]: 8.25 | pIC50 [2]: 8.27 | pIC50 [3]: 8.25 | pIC50 [4]: 8.28 | pIC50 [5]: 8.29 | viability, T/C (second compound 0.3 µM, first compound 31.6 pM): 113% | viability, T/C (second compound 0.3 µM, first compound 0.0001 µM): 87.5% | viability, T/C (second compound 0.3 µM, first compound 0.000316 µM): 92% | viability, T/C (second compound 0.3 µM, first compound 0.001 µM): 104% | viability, T/C (second compound 0.3 µM, first compound 0.00316 µM): 92.7% | viability, T/C (second compound 0.3 µM, first compound 0.01 µM): 6.67% | viability, T/C (second compound 0.949 µM, first compound 31.6 pM): 94.7% | viability, T/C (second compound 0.949 µM, first compound 0.0001 µM): 82.4% | viability, T/C (second compound 0.949 µM, first compound 0.000316 µM): 77.3% | viability, T/C (second compound 0.949 µM, first compound 0.001 µM): 82.8% | viability, T/C (second compound 0.949 µM, first compound 0.00316 µM): 92.2% | viability, T/C (second compound 0.949 µM, first compound 0.01 µM): 8.18% | viability, T/C (second compound 3 µM, first compound 31.6 pM): 93.4% | viability, T/C (second compound 3 µM, first compound 0.0001 µM): 101% | viability, T/C (second compound 3 µM, first compound 0.000316 µM): 86.6% | viability, T/C (second compound 3 µM, first compound 0.001 µM): 84.9% | viability, T/C (second compound 3 µM, first compound 0.00316 µM): 93.1% | viability, T/C (second compound 3 µM, first compound 0.01 µM): 7.99% | viability, T/C (second compound 9.49 µM, first compound 31.6 pM): 92.7% | viability, T/C (second compound 9.49 µM, first compound 0.0001 µM): 95.9% | viability, T/C (second compound 9.49 µM, first compound 0.000316 µM): 68.7% | viability, T/C (second compound 9.49 µM, first compound 0.001 µM): 80% | viability, T/C (second compound 9.49 µM, first compound 0.00316 µM): 82.7% | viability, T/C (second compound 9.49 µM, first compound 0.01 µM): 7.48% | viability, T/C (second compound 30 µM, first compound 31.6 pM): 86.8% | viability, T/C (second compound 30 µM, first compound 0.0001 µM): 83.7% | viability, T/C (second compound 30 µM, first compound 0.000316 µM): 75.4% | viability, T/C (second compound 30 µM, first compound 0.001 µM): 78% | viability, T/C (second compound 30 µM, first compound 0.00316 µM): 84.1% | viability, T/C (second compound 30 µM, first compound 0.01 µM): 5.06%

Source: PubChem BioAssay AID2060351 (Molecular Pharmacology Branch, DTP, NCI, 2025)
